# Data from ChEMBL document CHEMBL5649169 (ChemMedChem, 2018).
# Experiments:
# [1] = target: Ephrin type-A receptor 3 (Homo sapiens, UniProt P29320); test: Inhibition of Nano Luc-fused full length C-terminal EPHA3 (unknown origin) expressed in HEK293T cells using NanoGlo as substrate incubated for 2 hrs in presence of tracer by NanoBRET assay; assay type: cell-based
# [2] = target: Cytoskeleton-associated protein 4 (Homo sapiens) (UniProt Q07065); note: assay method not described here
# [3] = organism: Homo sapiens; note: assay method not described here
# [4] = target: Cytochrome c1, heme protein, mitochondrial (Homo sapiens) (UniProt P08574); note: assay method not described here
# Cytochrome c1, heme protein, mitochondrial (Homo sapiens), sequence (P08574 whole entry, the tested form may be a part): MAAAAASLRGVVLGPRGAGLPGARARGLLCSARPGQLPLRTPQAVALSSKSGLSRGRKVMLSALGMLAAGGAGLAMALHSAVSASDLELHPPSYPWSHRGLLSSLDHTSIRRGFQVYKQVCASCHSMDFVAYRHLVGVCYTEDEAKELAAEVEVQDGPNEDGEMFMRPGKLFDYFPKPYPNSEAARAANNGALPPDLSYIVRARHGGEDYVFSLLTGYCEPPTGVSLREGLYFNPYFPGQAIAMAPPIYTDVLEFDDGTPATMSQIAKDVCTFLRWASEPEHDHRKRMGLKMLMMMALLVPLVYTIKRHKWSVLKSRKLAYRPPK
# [5] = target: Epithelial discoidin domain-containing receptor 1 (Homo sapiens) (UniProt Q08345); note: assay method not described here
# [6] = target: Dihydrolipoyllysine-residue acetyltransferase component of pyruvate dehydrogenase complex, mitochondrial (Homo sapiens) (UniProt P10515); note: assay method not described here
# [7] = target: DnaJ homolog subfamily C member 10 (Homo sapiens) (UniProt Q8IXB1); note: assay method not described here
# DnaJ homolog subfamily C member 10 (Homo sapiens), sequence (Q8IXB1 whole entry): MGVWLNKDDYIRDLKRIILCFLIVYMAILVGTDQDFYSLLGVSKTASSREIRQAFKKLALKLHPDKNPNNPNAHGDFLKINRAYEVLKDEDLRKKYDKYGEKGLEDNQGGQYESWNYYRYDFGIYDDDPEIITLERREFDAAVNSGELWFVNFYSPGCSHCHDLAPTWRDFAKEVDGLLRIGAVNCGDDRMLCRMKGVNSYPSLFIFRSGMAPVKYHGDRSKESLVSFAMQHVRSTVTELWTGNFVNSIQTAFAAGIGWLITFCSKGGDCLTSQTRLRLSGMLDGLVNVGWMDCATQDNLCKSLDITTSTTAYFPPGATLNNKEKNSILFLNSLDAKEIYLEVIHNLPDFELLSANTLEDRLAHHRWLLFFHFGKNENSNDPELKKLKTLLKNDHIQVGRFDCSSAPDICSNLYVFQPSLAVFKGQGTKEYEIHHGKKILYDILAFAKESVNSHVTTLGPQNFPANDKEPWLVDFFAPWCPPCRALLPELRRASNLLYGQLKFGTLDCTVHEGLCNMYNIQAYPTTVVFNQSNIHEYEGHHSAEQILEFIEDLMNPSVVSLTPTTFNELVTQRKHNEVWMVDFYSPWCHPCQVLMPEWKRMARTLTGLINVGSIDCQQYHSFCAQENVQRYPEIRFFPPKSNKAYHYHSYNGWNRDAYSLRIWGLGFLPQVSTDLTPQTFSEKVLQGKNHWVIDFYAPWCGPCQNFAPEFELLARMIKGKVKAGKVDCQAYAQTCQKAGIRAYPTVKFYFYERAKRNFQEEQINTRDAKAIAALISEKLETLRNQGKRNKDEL
# [8] = organism: Homo sapiens; remark: listed apart in the source; note: assay method not described here
# [9] = target: Enhancer of rudimentary homolog (Homo sapiens) (UniProt P84090); note: assay method not described here
# [10] = target: Peptidyl-prolyl cis-trans isomerase FKBP4 (Homo sapiens) (UniProt Q02790); note: assay method not described here
# Peptidyl-prolyl cis-trans isomerase FKBP4 (Homo sapiens), sequence (Q02790 whole entry): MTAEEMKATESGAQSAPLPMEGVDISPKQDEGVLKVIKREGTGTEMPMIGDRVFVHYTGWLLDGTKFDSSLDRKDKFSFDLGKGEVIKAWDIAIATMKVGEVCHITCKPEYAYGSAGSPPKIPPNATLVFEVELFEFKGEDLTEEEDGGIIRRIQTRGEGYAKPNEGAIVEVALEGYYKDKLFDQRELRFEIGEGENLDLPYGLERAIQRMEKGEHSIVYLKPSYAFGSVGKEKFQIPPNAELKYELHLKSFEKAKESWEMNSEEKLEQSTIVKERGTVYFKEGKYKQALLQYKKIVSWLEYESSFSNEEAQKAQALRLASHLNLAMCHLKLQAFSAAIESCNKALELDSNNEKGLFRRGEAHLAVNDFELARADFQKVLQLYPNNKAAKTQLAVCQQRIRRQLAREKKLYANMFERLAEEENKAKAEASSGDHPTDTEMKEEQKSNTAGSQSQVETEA
# [11] = target: Cyclin-G-associated kinase (Homo sapiens) (UniProt O14976); note: assay method not described here
# [12] = target: Neutral alpha-glucosidase AB (Homo sapiens) (UniProt Q14697); note: assay method not described here
# [13] = target: Glyceraldehyde-3-phosphate dehydrogenase (Homo sapiens) (UniProt P04406); note: assay method not described here
# [14] = target: Glutathione reductase, mitochondrial (Homo sapiens) (UniProt P00390); note: assay method not described here
# [15] = target: GTP-binding protein 4 (Homo sapiens) (UniProt Q9BZE4); note: assay method not described here
# [16] = target: Stress-70 protein, mitochondrial (Homo sapiens) (UniProt P38646); note: assay method not described here
# [17] = target: Importin-8 (Homo sapiens) (UniProt O15397); note: assay method not described here
# [18] = target: Interleukin-1 receptor-associated kinase 3 (Homo sapiens) (UniProt Q9Y616); note: assay method not described here
# Interleukin-1 receptor-associated kinase 3 (Homo sapiens), sequence (Q9Y616 whole entry): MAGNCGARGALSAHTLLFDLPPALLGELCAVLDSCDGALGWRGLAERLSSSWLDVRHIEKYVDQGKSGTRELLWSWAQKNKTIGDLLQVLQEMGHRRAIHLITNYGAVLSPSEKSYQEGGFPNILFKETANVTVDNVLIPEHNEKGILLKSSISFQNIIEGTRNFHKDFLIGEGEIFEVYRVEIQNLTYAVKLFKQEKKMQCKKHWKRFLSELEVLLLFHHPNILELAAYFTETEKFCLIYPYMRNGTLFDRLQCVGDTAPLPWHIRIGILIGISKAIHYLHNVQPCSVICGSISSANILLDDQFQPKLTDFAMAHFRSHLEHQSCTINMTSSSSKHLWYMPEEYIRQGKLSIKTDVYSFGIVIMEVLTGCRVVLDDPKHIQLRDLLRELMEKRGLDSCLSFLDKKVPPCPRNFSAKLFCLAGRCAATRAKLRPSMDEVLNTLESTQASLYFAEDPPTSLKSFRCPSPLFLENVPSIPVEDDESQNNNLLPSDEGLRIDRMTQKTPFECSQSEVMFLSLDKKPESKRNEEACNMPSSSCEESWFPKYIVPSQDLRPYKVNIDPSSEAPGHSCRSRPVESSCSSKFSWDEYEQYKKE
# [19] = target: Interleukin-1 receptor-associated kinase 4 (Homo sapiens) (UniProt Q9NWZ3); note: assay method not described here
# [20] = target: Tyrosine-protein kinase Lck (Homo sapiens) (UniProt P06239); note: assay method not described here
# [21] = target: Dual specificity mitogen-activated protein kinase kinase 6 (Homo sapiens) (UniProt P52564); note: assay method not described here
# [22] = target: Mitogen-activated protein kinase kinase kinase 4 (Homo sapiens) (UniProt Q9Y6R4); note: assay method not described here
# [23] = target: N-alpha-acetyltransferase 15, NatA auxiliary subunit (Homo sapiens) (UniProt Q9BXJ9); note: assay method not described here
# [24] = target: Serine/threonine-protein kinase Nek1 (Homo sapiens) (UniProt Q96PY6); note: assay method not described here
# [25] = target: Nucleophosmin (Homo sapiens) (UniProt P06748); note: assay method not described here
# [26] = target: Phosphoenolpyruvate carboxykinase [GTP], mitochondrial (Homo sapiens) (UniProt Q16822); note: assay method not described here
# Phosphoenolpyruvate carboxykinase [GTP], mitochondrial (Homo sapiens), sequence (Q16822 whole entry, canonical isoform): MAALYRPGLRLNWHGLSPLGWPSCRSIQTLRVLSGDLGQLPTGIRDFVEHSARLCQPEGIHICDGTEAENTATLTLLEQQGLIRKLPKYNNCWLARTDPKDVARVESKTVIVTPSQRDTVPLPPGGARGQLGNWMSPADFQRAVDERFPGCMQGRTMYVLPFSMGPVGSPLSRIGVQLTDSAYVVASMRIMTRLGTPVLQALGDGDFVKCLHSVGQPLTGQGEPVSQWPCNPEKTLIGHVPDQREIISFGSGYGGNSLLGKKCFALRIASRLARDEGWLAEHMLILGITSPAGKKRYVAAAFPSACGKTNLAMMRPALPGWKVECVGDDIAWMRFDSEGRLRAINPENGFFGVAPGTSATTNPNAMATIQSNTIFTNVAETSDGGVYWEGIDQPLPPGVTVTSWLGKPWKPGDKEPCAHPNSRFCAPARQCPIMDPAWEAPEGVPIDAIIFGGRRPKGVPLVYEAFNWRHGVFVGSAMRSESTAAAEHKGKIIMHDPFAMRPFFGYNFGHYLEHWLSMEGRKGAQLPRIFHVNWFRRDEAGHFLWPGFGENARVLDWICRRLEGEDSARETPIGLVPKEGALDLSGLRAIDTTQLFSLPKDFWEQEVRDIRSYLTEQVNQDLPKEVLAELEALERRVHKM
# [27] = target: Phosphatidylinositol transfer protein beta isoform (Homo sapiens) (UniProt P48739); note: assay method not described here
# [28] = target: Serine/threonine-protein kinase PLK1 (Homo sapiens) (UniProt P53350); note: assay method not described here
# Serine/threonine-protein kinase PLK1 (Homo sapiens), sequence (P53350 whole entry): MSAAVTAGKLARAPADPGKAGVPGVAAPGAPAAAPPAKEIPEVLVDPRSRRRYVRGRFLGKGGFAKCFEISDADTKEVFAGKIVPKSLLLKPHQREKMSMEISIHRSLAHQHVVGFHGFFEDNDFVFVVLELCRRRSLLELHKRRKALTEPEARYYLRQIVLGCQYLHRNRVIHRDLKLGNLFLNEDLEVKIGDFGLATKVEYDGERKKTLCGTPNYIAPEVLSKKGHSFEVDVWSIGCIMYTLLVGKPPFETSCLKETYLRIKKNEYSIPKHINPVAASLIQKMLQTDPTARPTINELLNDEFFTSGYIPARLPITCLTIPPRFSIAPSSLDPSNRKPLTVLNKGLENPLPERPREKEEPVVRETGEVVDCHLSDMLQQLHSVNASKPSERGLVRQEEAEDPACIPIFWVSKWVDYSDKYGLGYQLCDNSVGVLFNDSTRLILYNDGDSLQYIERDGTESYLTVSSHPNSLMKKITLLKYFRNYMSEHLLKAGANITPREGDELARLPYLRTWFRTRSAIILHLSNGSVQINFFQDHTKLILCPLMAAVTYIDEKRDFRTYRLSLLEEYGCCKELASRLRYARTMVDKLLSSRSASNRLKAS
# [29] = target: Pre-mRNA-processing-splicing factor 8 (Homo sapiens) (UniProt Q6P2Q9); note: assay method not described here
# [30] = target: Proteasome subunit alpha type-1 (Homo sapiens) (UniProt P25786); note: assay method not described here
# [31] = target: 26S proteasome regulatory subunit 10B (Homo sapiens) (UniProt P62333); note: assay method not described here
# [32] = target: Small ribosomal subunit protein uS8 (Homo sapiens) (UniProt P62244); note: assay method not described here
# [33] = target: Small ribosomal subunit protein eS25 (Homo sapiens) (UniProt P62851); note: assay method not described here
# [34] = target: Protein transport protein Sec24C (Homo sapiens) (UniProt P53992); note: assay method not described here
# [35] = target: Amino acid transporter heavy chain SLC3A2 (Homo sapiens) (UniProt P08195); note: assay method not described here
# [36] = target: Structural maintenance of chromosomes protein 4 (Homo sapiens) (UniProt Q9NTJ3); note: assay method not described here
# [37] = target: Translocon-associated protein subunit gamma (Homo sapiens) (UniProt Q9UNL2); note: assay method not described here
# Translocon-associated protein subunit gamma (Homo sapiens), sequence (Q9UNL2 whole entry): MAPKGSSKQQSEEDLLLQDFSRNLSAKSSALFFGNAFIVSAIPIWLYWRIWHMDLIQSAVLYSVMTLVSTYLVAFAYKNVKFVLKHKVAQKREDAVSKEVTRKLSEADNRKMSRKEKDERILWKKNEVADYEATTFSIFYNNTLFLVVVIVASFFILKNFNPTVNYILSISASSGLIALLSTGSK
# [38] = target: Serine/threonine-protein kinase 16 (Homo sapiens) (UniProt O75716); note: assay method not described here
# Serine/threonine-protein kinase 16 (Homo sapiens), sequence (O75716 whole entry): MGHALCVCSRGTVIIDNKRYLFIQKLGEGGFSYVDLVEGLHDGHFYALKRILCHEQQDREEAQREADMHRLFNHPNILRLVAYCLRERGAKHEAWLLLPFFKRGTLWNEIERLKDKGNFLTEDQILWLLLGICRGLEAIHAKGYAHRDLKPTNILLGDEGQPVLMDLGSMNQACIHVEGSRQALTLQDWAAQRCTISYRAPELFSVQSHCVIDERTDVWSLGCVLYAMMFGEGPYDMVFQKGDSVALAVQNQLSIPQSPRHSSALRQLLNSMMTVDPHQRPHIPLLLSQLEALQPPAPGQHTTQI
# [39] = target: FACT complex subunit SPT16 (Homo sapiens) (UniProt Q9Y5B9); note: assay method not described here
# FACT complex subunit SPT16 (Homo sapiens), sequence (Q9Y5B9 whole entry, one chain of several): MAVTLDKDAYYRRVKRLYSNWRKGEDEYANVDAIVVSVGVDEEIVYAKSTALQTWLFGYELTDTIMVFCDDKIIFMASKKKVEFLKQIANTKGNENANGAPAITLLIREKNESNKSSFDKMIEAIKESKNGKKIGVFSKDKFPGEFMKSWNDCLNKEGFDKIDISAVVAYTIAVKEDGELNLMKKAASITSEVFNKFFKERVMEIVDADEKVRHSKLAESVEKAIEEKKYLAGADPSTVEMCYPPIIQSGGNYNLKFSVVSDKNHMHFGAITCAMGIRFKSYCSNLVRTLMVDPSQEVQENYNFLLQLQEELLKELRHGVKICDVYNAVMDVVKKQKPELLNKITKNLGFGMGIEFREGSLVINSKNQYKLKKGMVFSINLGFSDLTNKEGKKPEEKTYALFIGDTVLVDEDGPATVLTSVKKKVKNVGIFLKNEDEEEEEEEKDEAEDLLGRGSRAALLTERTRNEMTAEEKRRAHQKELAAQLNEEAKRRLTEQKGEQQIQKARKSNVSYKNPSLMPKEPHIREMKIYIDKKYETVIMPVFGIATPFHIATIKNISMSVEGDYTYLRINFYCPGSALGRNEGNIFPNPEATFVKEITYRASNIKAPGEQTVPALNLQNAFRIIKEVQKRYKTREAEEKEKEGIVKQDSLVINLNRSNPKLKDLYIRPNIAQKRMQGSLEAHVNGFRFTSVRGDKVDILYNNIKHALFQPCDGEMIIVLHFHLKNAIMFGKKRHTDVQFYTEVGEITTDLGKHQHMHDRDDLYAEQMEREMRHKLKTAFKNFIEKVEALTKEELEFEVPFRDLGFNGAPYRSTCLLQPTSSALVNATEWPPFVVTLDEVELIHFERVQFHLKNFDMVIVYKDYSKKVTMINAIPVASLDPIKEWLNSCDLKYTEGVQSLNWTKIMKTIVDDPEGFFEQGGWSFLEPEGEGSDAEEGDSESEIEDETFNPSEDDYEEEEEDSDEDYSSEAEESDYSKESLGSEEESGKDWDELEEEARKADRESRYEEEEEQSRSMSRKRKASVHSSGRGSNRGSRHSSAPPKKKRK
# [40] = target: Dual specificity testis-specific protein kinase 2 (Homo sapiens) (UniProt Q96S53); note: assay method not described here
# [41] = target: THO complex subunit 2 (Homo sapiens) (UniProt Q8NI27); note: assay method not described here
# [42] = target: THUMP domain-containing protein 1 (Homo sapiens) (UniProt Q9NXG2); note: assay method not described here
# [43] = target: Nucleoprotein TPR (Homo sapiens) (UniProt P12270); note: assay method not described here
# [44] = target: Non-receptor tyrosine-protein kinase TYK2 (Homo sapiens) (UniProt P29597); note: assay method not described here
# [45] = target: Ubiquitin carboxyl-terminal hydrolase 7 (Homo sapiens) (UniProt Q93009); note: assay method not described here
# [46] = target: Zinc finger CCCH-type antiviral protein 1 (Homo sapiens) (UniProt Q7Z2W4); note: assay method not described here
structure (smiles),measurement,setting,value
Cc1ccc(C(=O)Nc2cccc(C(F)(F)F)c2)cc1Nc1nc(-c2cccnc2)nc2c1cnn2C,IC50,[1],0.0003 µM
same,ED50,[2],0.00547 µM
same,ED50,[3],3.03 µM
same,ED50,[4],0.00055 µM
same,ED50,[5],0.484 µM
same,ED50,[6],2.58 µM
same,ED50,[7],4930 µM
same,ED50,[8],2.74 µM
same,ED50,[9],0.00895 µM
same,ED50,[10],8.87 µM
same,ED50,[11],4.02 µM
same,ED50,[12],4.09 µM
same,ED50,[13],8.39 µM
same,ED50,[14],8.81 µM
same,ED50,[15],2.95 µM
same,ED50,[16],0.0314 µM
same,ED50,[17],49.5 µM
same,ED50,[18],1.34 µM
same,ED50,[19],0.466 µM
same,ED50,[20],1.36 µM
same,ED50,[21],0.0368 µM
same,ED50,[22],7.94 µM
same,ED50,[23],11.7 µM
same,ED50,[24],1.87 µM
same,ED50,[25],0.00826 µM
same,ED50,[26],0.398 µM
same,ED50,[27],1.71 µM
same,ED50,[28],1.22 µM
same,ED50,[29],93.7 µM
same,ED50,[30],10.4 µM
same,ED50,[31],43.4 µM
same,ED50,[32],0.00641 µM
same,ED50,[33],2.64 µM
same,ED50,[34],0.0116 µM
same,ED50,[35],5.57 µM
same,ED50,[36],7.32 µM
same,ED50,[37],12.7 µM
same,ED50,[38],0.13 µM
same,ED50,[39],0.0046 µM
same,ED50,[40],0.00136 µM
same,ED50,[41],8.4 µM
same,ED50,[42],101 µM
same,ED50,[43],10.4 µM
same,ED50,[44],69.7 µM
same,ED50,[45],0.00616 µM
same,ED50,[46],13.3 µM
Cc1ccc(C(=O)Nc2cccc(C(F)(F)F)c2)cc1Nc1nc(-c2cccnc2)nc2nn(C)cc12,IC50,[1],0.05 µM
same,ED50,[2],0.174 µM
same,ED50,[3],0.00933 µM
same,ED50,[4],0.0293 µM
same,ED50,[5],0.136 µM
same,ED50,[6],0.0551 µM
same,ED50,[7],3.27 µM
same,ED50,[8],0.0747 µM
same,ED50,[9],0.806 µM
same,ED50,[10],0.546 µM
same,ED50,[11],2.32 µM
same,ED50,[12],0.0402 µM
same,ED50,[13],0.0602 µM
same,ED50,[14],24.7 µM
same,ED50,[15],0.593 µM
same,ED50,[16],0.0308 µM
same,ED50,[17],25.8 µM
same,ED50,[18],0.0262 µM
same,ED50,[19],647 µM
same,ED50,[20],7.84 µM
same,ED50,[21],1.71 µM
same,ED50,[22],0.05 µM
same,ED50,[23],2.07 µM
same,ED50,[24],0.000912 µM
same,ED50,[25],104 µM
same,ED50,[26],0.429 µM
same,ED50,[27],1.13 µM
same,ED50,[28],98.4 µM
same,ED50,[29],0.553 µM
same,ED50,[30],9.78 µM
same,ED50,[31],0.164 µM
same,ED50,[32],5.32 µM
same,ED50,[33],0.2 µM
same,ED50,[34],1.46 µM
same,ED50,[35],0.362 µM
same,ED50,[36],7.29 µM
same,ED50,[37],0.0505 µM
same,ED50,[38],0.0232 µM
same,ED50,[39],0.149 µM
same,ED50,[40],0.00616 µM
same,ED50,[41],2.05 µM
same,ED50,[42],75 µM
same,ED50,[43],7.76 µM
same,ED50,[44],1.13 µM
same,ED50,[45],0.049 µM
same,ED50,[46],0.0483 µM
